The values below come from PMC9268552, “Synthesis of Pyrimidine Conjugates with 4-(6-Amino-hexanoyl)-7,8-difluoro-3,4-dihydro-3-methyl-2H-[1,4]benzoxazine and Evaluation of Their Antiviral Activity” (Molecules, 2022).

SMILES strings stand for the structures. “And” between values parts separate entries of the source, which are not always exact repeats. Equal entries are not always repeated. Where two headings read alike, the source gives them in different places. Bounds are passed on as bounds.

For data set [1], the system named is influenza virus A/Puerto Rico/8/34 (H1N1). Kind of data set: organism not typed. Particulars: MDCK, read-out: IC50 (50% inhibition of virus-induced CPE).
Data set [2] concerns HSV-1/L2. Nature of the data set: Suppression of virus-induced cytopathogenic effect (CPE), reference strain HSV-1/L2 in Vero E6 cells. Particulars: for IC50: Human alphaherpesvirus 1, Vero C1008, read-out: IC50 (50% inhibition of virus-induced CPE). From the text: (§1) The anti-herpesvirus activity of the synthesized compounds 5a–e was studied against the reference strain HSV-1/L2 and the acyclovir-resistant strain HSV-1/L2/R in the Vero E6 cells (Table 1) by suppressing the virus-induced cytopathogenic effect (CPE) as described previously. Acyclovir, Foscarnet (sodium phosphonoformate hexahydrate), a drug of choice in clinical practice in case of inefficiency of acyclovir and related compounds, including cases of drug resistance, and Ribavirin, were used as reference drugs. To assess the cytotoxicity of the studied compounds, the percentage of viable and non-viable cells was determined using Trypan blue exclusion assay.

Data set [3] in a line: Cytotoxicity in Vero E6 cells (Trypan blue exclusion assay). Particulars: African green monkey.
Source text: as §1

A short description of data set [4]: in vitro. Particulars: dog.
In data set [5] the test system is HSV-1/L2/R. Nature of the data set: microbe, parasite or virus in culture. Particulars: for SI (CC50/IC50): HSV-1/L2/R (acyclovir-resistant), Vero E6 cells; for IC50: Human alphaherpesvirus 1, Vero C1008, read-out: IC50 (50% inhibition of virus-induced CPE).
Source text: as §1

The subject of data set [6] is Vero E6 cells. The following applies: read-out: CC50 ± SD, data for comparison, ref [27]; cited from earlier work.
Data set [7] concerns MDCK cells. The following applies: read-out: CC50 ± SD, data for comparison, ref [31]; cited from earlier work.
Data set [8] deals with influenza virus A/Puerto Rico/8/34 (H1N1). The following applies: influenza A/Puerto Rico/8/34 (H1N1), MDCK cells, data for comparison, ref [31], cited from earlier work.
The test system of data set [9] is HSV-1/L2. Particulars: cited from earlier work.
The subject of data set [10] is HSV-1/L2/R. Particulars: HSV-1/L2/R (acyclovir-resistant); Vero E6 cells; data for comparison; ref [27]; cited from earlier work.
Data set [11] has as its system influenza virus A/Puerto Rico/8/34 (H1N1). The following applies: influenza A/Puerto Rico/8/34 (H1N1); MDCK cells.

`CC1COc2c(ccc(F)c2F)N1C(=O)CCCCCNc1ncccn1` (racemic) [(RS)-5d, (RS)-7,8-Difluoro-3,4-dihydro-3-methyl-4-[6-(pyrimidin-2-yl)aminohexanoyl]-2H-[1,4]benzoxazine] displayed a melting point of 106 to 108 °C. Moreover, the IC50 in data set [1] is > 88 µM. Also, the “SI (CC50/IC50)” value in data set [2] (HSV-1/L2, Vero E6 cells) was 1.7. In addition, the IC50 in data set [2] stood at 297 µM. This molecule came in with a CC50 in data set [3] of 505 ± 17.7 µM. In data set [4], this molecule yielded a CC50 of 257 ± 12 µM. Further, in data set [5], the “SI (CC50/IC50)” value was <2 and the IC50 amounted to 297 µM.
Regarding `C[C@H]1COc2c(ccc(F)c2F)N1C(=O)CCCCCNc1ncnc2[nH]cnc12` [(S)-1], the values for the CC50 in data set [6] and in [7] were 293 ± 15.5 µM and 24 ± 1 µM, respectively. The “SI (CC50/IC50)” value is on record as >2 ^1 in data set [8]; 64 in [9] (Vero E6 cells, data for comparison, ref [27]); 64 ^1 in data set [10]. The IC50 in [8] (read-out: IC50 (50% inhibition of virus-induced CPE)) is > 10 µM; in data set [9] (read-out: IC50 (50% inhibition of virus-induced CPE), Vero E6 cells, data for comparison, ref [27]), 4.6 µM.
In turn, `C[C@@H]1COc2c(ccc(F)c2F)N1C(=O)CCCCCNc1ccnc(N)n1.C[C@@H]1COc2c(ccc(F)c2F)N1C(=O)CCCCCNc1ccnc(N)n1.O.O.O` (racemic) (hydrate or solvate) [(RS)-5a, (RS)-4-[6-(2-Aminopyrimidin-4-yl)aminohexanoyl]-7,8-difluoro-3,4-dihydro-3-methyl-2H-[1,4]benzoxazine Sesquihydrate] had a melting point of 59 to 60 °C.
`NC(=O)c1ncn([C@@H]2O[C@H](CO)[C@@H](O)[C@H]2O)n1` [Ribavirin, reference compound]: the “SI (CC50/IC50)” value in data set [2] and in data set [5] was >4 in each case. The IC50 in [2] and in data set [5] was 1020 µM in each case. In addition, the CC50 in data set [3] was > 4100 µM.
`C[C@H]1COc2c(ccc(F)c2F)N1C(=O)CCCCCNc1ccnc(N)n1.O` (hydrate or solvate) [(S)-5a, (S)-4-[6-(2-Aminopyrimidin-4-yl)aminohexanoyl]-7,8-difluoro-3,4-dihydro-3-methyl-2H-[1,4]benzoxazine Hydrate]: the melting point is 78 to 80 °C.
Consider `C[C@@H]1COc2c(ccc(F)c2F)N1C(=O)CCCCCNc1ncnc2[nH]ccc12.C[C@@H]1COc2c(ccc(F)c2F)N1C(=O)CCCCCNc1ncnc2[nH]ccc12.O` (racemic) [(RS)-5e, (RS)-7,8-Difluoro-3,4-dihydro-3-methyl-4-[6-(7H-pyrrolo[2,3-d]pyrimidin-4-yl)aminohexanoyl]-2H-[1,4]benzoxazine Hemihydrate], for which the “SI (CC50/IC50)” value in data set [11] is 1; in data set [2] (HSV-1/L2, Vero E6 cells), <1; in [5] it was <1. In addition, the IC50 in data set [1] was > 80 µM; in data set [2] it was 18.6 µM; in data set [5], 18.6 µM. Also, the values for the CC50 in data set [3] and in [4] were 17.6 ± 0.85 µM and 86 ± 4 µM, respectively.
On to `Nc1nc2c(ncn2COCCO)c(=O)[nH]1` [Acyclovir, reference compound], for which, in [2], the “SI (CC50/IC50)” value is given as >256 and the IC50 worked out at 1.73 µM. In addition, the CC50 in data set [3] was > 444 µM. In [5], the “SI (CC50/IC50)” value is 1 and the IC50 was > 444 µM.
The molecule `CC1COc2c(ccc(F)c2F)N1C(=O)CCCCCNc1cc(Cl)ncn1` (racemic) [(RS)-5c, (RS)-4-[6-(6-Chloropyrimidin-4-yl)aminohexanoyl]-7,8-difluoro-3,4-dihydro-3-methyl-2H-[1,4]benzoxazine] yielded a melting point of 101 to 103 °C. In addition, the “SI (CC50/IC50)” value in data set [11] is 1. Moreover, the IC50 in [1] was > 8 µM. Moreover, in [2] (HSV-1/L2, Vero E6 cells), the “SI (CC50/IC50)” value was >2.0. Besides, the IC50 in data set [2] came out at 148 µM. Moreover, the CC50 in data set [3] was > 304 µM. In data set [4], this molecule had a CC50 of 9 ± 1 µM. For the same molecule, in data set [5], the “SI (CC50/IC50)” value worked out at 2 and the IC50 turned out to be 152 µM.
Consider `CCC(CC)O[C@@H]1C=C(C(=O)O)C[C@H](N)[C@H]1NC(C)=O` [Oseltamivir carboxylate, reference compound], for which the “SI (CC50/IC50)” value in [11] is >667. For the same molecule, in data set [1], the IC50 amounted to 0.3 µM. In addition, in [4], the CC50 was > 200 µM.
As for `C[C@@H]1COc2c(ccc(F)c2F)N1C(=O)CCCCCNc1ncnc2[nH]ccc12.C[C@@H]1COc2c(ccc(F)c2F)N1C(=O)CCCCCNc1ncnc2[nH]ccc12.O` (racemic) (hydrate or solvate) [(RS)-5e, (RS)-7,8-Difluoro-3,4-dihydro-3-methyl-4-[6-(7H-pyrrolo[2,3-d]pyrimidin-4-yl)aminohexanoyl]-2H-[1,4]benzoxazine Hemihydrate], the melting point lay in the range of 86 to 88 °C.
Take `C[C@@H]1COc2c(ccc(F)c2F)N1C(=O)CCCCCNc1ccnc(N)n1.C[C@@H]1COc2c(ccc(F)c2F)N1C(=O)CCCCCNc1ccnc(N)n1.O.O.O` (racemic) [(RS)-5a, (RS)-4-[6-(2-Aminopyrimidin-4-yl)aminohexanoyl]-7,8-difluoro-3,4-dihydro-3-methyl-2H-[1,4]benzoxazine Sesquihydrate]: the “SI (CC50/IC50)” value in data set [11] is >1; in data set [2] (HSV-1/L2, Vero E6 cells) it was 8 and 8.1; in [5], 8. In addition, the IC50 was determined as 8 ± 1 µM in data set [1], 18.6 µM in data set [2] and 18.6 µM in data set [5]. The CC50 in data set [3] stood at 151 ± 8.36 µM; in data set [4], 11 ± 1 µM.
Take `C[C@H]1COc2c(ccc(F)c2F)N1C(=O)CCCCCNc1ccnc(N)n1.O` [(S)-5a, (S)-4-[6-(2-Aminopyrimidin-4-yl)aminohexanoyl]-7,8-difluoro-3,4-dihydro-3-methyl-2H-[1,4]benzoxazine Hydrate]: the “SI (CC50/IC50)” value in data set [11] is >3; in data set [2] (HSV-1/L2, Vero E6 cells) it was 3.7; in data set [5], <4. The IC50 in [1] worked out at 7 ± 1 µM; in [2] it was 9.27 µM; in [5], 9.27 µM. The figures for the CC50 in data set [3] and in data set [4] were 34.6 ± 0.88 µM and 23 ± 1.2 µM, respectively.
In the case of `CC1COc2c(ccc(F)c2F)N1C(=O)CCCCCNc1cc(Cl)nc(N)n1` (racemic) [(RS)-5b, (RS)-4-[6-(2-Amino-6-chloropyrimidin-4-yl)aminohexanoyl]-7,8-difluoro-3,4-dihydro-3-methyl-2H-[1,4]benzoxazine], the melting point was in the range of 92 to 94 °C. In addition, the “SI (CC50/IC50)” value in [11] was <8. In data set [1], the IC50 was determined as 92 ± 11 µM. In data set [2] (HSV-1/L2, Vero E6 cells), the “SI (CC50/IC50)” value was 3.7. In addition, the IC50 in [2] was 73.4 µM. Also, the CC50 in data set [3] was 275 ± 4.3 µM. The molecule further registered a CC50 in data set [4] of 705 ± 42 µM. Also, in data set [5], the “SI (CC50/IC50)” value was <4 and the IC50 is 73.4 µM.
With `O=C(O)P(=O)(O)O` [Foscarnet, sodium phosphonoformate hexahydrate, reference compound], in [2], the “SI (CC50/IC50)” value is reported as >4 and the IC50 worked out at 104 µM. For the same molecule, in [3], the CC50 was > 417 µM. In data set [5], the “SI (CC50/IC50)” value is on record as >4 and the IC50 came to 104 µM.
`C[C@H]1COc2c(ccc(F)c2F)N1C(=O)CCCCCNc1ncnc2[nH]ccc12` [(S)-5e, (3S)-7,8-Difluoro-3,4-dihydro-3-methyl-4-[6-(7H-pyrrolo[2,3-d]pyrimidin-4-yl)aminohexanoyl]-2H-[1,4]benzoxazine]: the melting point was in the range of 87 to 89 °C. The “SI (CC50/IC50)” value in data set [11] is given as <2. Also, the IC50 in data set [1] was > 26 µM. In addition, the “SI (CC50/IC50)” value in [2] (HSV-1/L2, Vero E6 cells) was 6 and 6.3. The IC50 in data set [2] was determined as 74.2 µM. In data set [3], this molecule yielded a CC50 of 469 ± 10.8 µM. In data set [4], this molecule registered a CC50 of 47 ± 3 µM. In data set [5], the “SI (CC50/IC50)” value stood at 6 and the IC50 was determined as 75.2 µM.
